In one data set the target is FGFR4 (h) (Homo sapiens, UniProt P22455). As to the kind of experiment: FGFR4 (enzymatic assay), TR-FRET. To be noted: FGFR 4 pIC50, enzymatic assay. The data set is classed as biochemical. In general terms: In TR-FRET formats the signal depends on donor and acceptor labels being close together.
Data set [1] deals with Ba/F3-FGFR3-transfected cells. Nature of the data set: Ba/F3-FGFR3 (plus IL3) cellular proliferation assay, counterscreen with 10 ng/ml murine IL3. The data set is classed as cell-based. To be noted: plus IL3 (10 ng/ml murine IL3, counterscreen); read-out: BAF3-FGFR3 (PLUS IL3) pIC50 (converted). The essentials:
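Viability readout was resazurin reduction (ex 540/em 590 nm) after 4 h, following 24 h compound treatment at 37 °C of FGFR3-transfected Ba/F3 cells (20000/well, RPMI-1640/10% FBS). IL3-dependent counterscreen used identical conditions plus 10 ng/ml murine IL3.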
For orientation: A counterscreen serves to expose hits that act by an unwanted route or on another target.

The next data set has as its target KDR (h) (Homo sapiens, UniProt P35968). Nature of the data set: KDR (VEGFR2) (enzymatic assay), TR-FRET. Format: biochemical. To be noted: read-out: VEGFR 2 (KDR) pIC50 (converted). In outline: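 Enzyme at 150 ng/ml was incubated 120 min at room temperature with 500 nM Btn-Flt3 peptide and 3 μM ATP in 50 mM HEPES pH 7.5, 6 mM MnCl2, 1 mM DTT, 0.1 mM Na3VO4, 0.01% Triton-X-100, 1% DMSO final. EDTA stop with Eu-anti-P-Tyr/SA-XL-665, 60 min; TR-FRET read in RFU.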

Each structure is given as a SMILES string.

Chain of FGFR4 (h) (P22455 22-802): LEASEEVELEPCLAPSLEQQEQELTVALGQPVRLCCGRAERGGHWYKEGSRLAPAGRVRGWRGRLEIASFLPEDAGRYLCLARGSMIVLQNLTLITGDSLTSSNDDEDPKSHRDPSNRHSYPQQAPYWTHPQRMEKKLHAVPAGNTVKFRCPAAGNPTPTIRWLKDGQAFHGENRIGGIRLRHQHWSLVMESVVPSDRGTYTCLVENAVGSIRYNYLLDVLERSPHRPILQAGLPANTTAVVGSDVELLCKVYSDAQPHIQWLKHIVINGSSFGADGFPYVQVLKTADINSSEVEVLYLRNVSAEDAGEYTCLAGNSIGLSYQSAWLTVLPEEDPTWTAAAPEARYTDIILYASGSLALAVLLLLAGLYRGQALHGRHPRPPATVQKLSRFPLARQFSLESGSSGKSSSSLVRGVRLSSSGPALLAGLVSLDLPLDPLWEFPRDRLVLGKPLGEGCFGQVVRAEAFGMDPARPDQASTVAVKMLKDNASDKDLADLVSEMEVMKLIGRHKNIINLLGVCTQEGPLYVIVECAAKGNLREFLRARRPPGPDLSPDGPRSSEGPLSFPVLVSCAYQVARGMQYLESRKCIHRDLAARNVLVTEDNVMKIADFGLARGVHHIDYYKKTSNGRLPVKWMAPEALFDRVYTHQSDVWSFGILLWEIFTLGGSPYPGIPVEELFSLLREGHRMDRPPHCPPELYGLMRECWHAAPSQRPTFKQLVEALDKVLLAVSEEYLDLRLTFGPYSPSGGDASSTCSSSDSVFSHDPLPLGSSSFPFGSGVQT
Chain of KDR (h) (P35968 20-1356): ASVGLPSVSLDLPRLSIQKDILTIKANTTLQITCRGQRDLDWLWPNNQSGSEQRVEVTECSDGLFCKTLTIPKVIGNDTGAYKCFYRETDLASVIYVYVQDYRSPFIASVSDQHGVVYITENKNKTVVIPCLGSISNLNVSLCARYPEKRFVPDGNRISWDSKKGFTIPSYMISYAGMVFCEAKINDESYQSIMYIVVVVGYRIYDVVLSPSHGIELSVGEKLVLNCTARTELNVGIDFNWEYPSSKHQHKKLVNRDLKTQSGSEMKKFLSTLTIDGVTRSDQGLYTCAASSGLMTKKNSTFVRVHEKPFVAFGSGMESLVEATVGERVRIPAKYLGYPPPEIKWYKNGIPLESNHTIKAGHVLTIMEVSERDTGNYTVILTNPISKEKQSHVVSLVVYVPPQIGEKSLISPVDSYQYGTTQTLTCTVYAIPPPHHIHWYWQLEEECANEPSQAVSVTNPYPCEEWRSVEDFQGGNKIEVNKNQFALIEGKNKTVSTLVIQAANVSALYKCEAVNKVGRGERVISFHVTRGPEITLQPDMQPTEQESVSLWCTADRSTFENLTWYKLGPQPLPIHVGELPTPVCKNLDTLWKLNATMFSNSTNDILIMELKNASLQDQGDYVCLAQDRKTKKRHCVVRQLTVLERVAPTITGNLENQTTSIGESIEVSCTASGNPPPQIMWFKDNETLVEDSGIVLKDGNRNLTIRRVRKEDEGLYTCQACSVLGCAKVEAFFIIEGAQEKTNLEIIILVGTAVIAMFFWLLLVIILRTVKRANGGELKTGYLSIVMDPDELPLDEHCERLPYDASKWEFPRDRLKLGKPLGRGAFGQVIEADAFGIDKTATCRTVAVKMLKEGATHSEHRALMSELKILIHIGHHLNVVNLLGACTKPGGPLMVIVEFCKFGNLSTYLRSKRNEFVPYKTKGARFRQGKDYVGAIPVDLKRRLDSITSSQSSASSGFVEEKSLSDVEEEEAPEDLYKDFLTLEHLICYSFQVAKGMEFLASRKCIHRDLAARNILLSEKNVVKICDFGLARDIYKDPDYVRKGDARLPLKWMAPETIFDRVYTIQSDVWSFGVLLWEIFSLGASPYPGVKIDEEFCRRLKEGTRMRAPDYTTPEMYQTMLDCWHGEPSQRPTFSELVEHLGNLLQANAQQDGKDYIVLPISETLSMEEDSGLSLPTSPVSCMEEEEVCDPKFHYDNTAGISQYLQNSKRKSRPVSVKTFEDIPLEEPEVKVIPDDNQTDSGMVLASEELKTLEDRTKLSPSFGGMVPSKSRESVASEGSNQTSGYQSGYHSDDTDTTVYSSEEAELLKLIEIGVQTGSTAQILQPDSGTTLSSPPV

One may read the melting point as the temperature of the solid-liquid transition. As to `COc1cc(OC)c(F)c(/N=c2\ccc3ncc(-c4cnn(C)c4)nc3n2CCN(C2COC2)C2COC2)c1F` [Compound 164], the melting point was 218 °C. Further, the IC50 against FGFR4 (h) is 0.977 nM. In addition, in data set [1], the IC50 was greater than 10000 nM. The IC50 on KDR (h) is 3.39 nM.
The corresponding values for `COc1cc(OC)c(F)c(N(CC2CCC(=O)N2CCO)c2ccc3ncc(-c4cnn(C)c4)nc3n2)c1` (stereo not drawn) [Compound 194] are 102 °C, 44.7 nM, greater than 10000 nM and 126 nM.
The corresponding values for `COc1cc(OC)cc(N(Cc2n[nH]c(=O)o2)c2ccc3ncc(-c4cnn(C)c4)nc3n2)c1` [Compound 229] are 232 °C, 22.4 nM, greater than 10000 nM and 182 nM.
The corresponding values for `COc1cc(OC)cc(N(Cc2noc(C)n2)c2ccc3ncc(-c4cnn(C)c4)nc3n2)c1` [Compound 186] are 177 °C, 12 nM, greater than 10000 nM and 45.7 nM.
Take `COc1cc(OC)c(F)c(N(CC(=O)NCCO)c2ccc3ncc(-c4cnn(C)c4)nc3n2)c1` [Compound 230]: the melting point was 258 °C. Besides, the IC50 against FGFR4 (h) was 42.7 nM. The IC50 in data set [1] was greater than 10000 nM. Moreover, the IC50 on KDR (h) is 363 nM.
The like results for `COc1cc(/N=c2\ccc3ncc(-c4cnn(CC(C)(C)O)c4)nc3n2CC(C)(C)O)c(F)c(OC)c1` (single isomer, unassigned) [Compound 207] were, in that order, 154 °C, 3.16 nM, greater than 10000 nM and 8.32 nM.
The corresponding values for `COc1cc(OC)cc(N(Cc2nnco2)c2ccc3ncc(-c4cnn(C)c4)nc3n2)c1` [Compound 217] are 240 °C, 23.4 nM, greater than 10000 nM and 162 nM.
The corresponding values for `COc1cc(OC)c(F)c(N(CCO)c2ccc3ncc(-c4cnn(CCO)c4)nc3n2)c1` [Compound 233] are 194 °C, 2.88 nM, greater than 10000 nM and 25.7 nM.
`COc1cc(OC)c(F)c(N(CCNC2COC2)c2ccc3ncc(-c4cnn(C)c4)nc3n2)c1F` (single isomer, unassigned) [Compound 162] came in with a melting point of 183 °C. For the same molecule, at FGFR4 (h), the IC50 is 2.57 nM. Also, in data set [1], the IC50 was greater than 10000 nM. Besides, on KDR (h), the IC50 is 8.91 nM.
With `COc1cc(OC)cc(N(Cc2nnc(N)o2)c2ccc3ncc(-c4cnn(C)c4)nc3n2)c1` [Compound 188], the melting point turned out to be 246 °C. The molecule further had an IC50 against FGFR4 (h) of 1.62 nM. Also, the IC50 in data set [1] was greater than 10000 nM. The IC50 at KDR (h) was 33.9 nM.
The molecule `COc1cc(OC)c(F)c(N(CC(=O)O)c2ccc3ncc(-c4cnn(C)c4)nc3n2)c1` [Compound 231] showed a melting point greater than 260 °C. At FGFR4 (h), this molecule gave an IC50 of 17.8 nM. Moreover, the IC50 in data set [1] is greater than 10000 nM. Besides, the IC50 on KDR (h) is 200 nM.
As to `COc1cc(OC)c(F)c(N(CC#N)c2ccc3ncc(-c4cnn(C)c4)nc3n2)c1F` [Compound 173], the melting point worked out at 250 °C. Also, the IC50 against FGFR4 (h) is 0.724 nM. Further, the IC50 in data set [1] is greater than 10000 nM. The IC50 on KDR (h) was 8.91 nM.
Molecule `COc1cc(OC)c(F)c(/N=c2\ccc3ncc(-c4cnn(C)c4)nc3n2CC2CCOC2)c1F` (stereo not drawn) [Compound 154] gave a melting point of 226 °C. Further, the IC50 at FGFR4 (h) was 0.776 nM. The IC50 in data set [1] was greater than 10000 nM. Further, the IC50 at KDR (h) was 1.62 nM.
The corresponding values for `COc1cc(OC)c(F)c(N(CC2CCC(=O)N2CCO)c2ccc3ncc(-c4cnn(C)c4)nc3n2)c1` (single isomer, unassigned) [Compound 218] are 130 °C, 3.89 nM, greater than 10000 nM and 42.7 nM.
The like results for `COc1cc(/N=c2\ccc3ncc(-c4cnn(C)c4)nc3n2CC2CCOC2)c(F)c(OC)c1` (single isomer, unassigned) [Compound 169] were, in that order, 80 °C, 0.977 nM, greater than 10000 nM and 4.27 nM.
As for `COc1ccc(Cl)c(N(CC2CCC(=O)N2)c2ccc3ncc(-c4cnn(C)c4)nc3n2)c1Cl` (stereo not drawn) [Compound 93], the IC50 is 794 nM on FGFR4 (h), greater than 10000 nM in data set [1] and greater than 1000 nM on KDR (h).
The like results for `COc1cc(OC)c(F)c(N(CC2CCC(=O)N2C)c2ccc3ncc(-c4cnn(C)c4)nc3n2)c1` (stereo not drawn) [Compound 159] were, in that order, 20.4 nM, greater than 10000 nM and 83.2 nM.
The corresponding values for `COc1cc(OC)cc(N(CC2CCCOC2)c2ccc3ncc(-c4cnn(C)c4)nc3n2)c1` (stereo not drawn) [Compound 166] are 9.33 nM, greater than 10000 nM and 55 nM.
The corresponding values for `COc1cc(OC)cc(N(Cc2nncn2CCO)c2ccc3ncc(-c4cnn(C)c4)nc3n2)c1` [Compound 204] are 60.3 nM, greater than 10000 nM and 302 nM.
Consider `COc1cc(/N=c2\ccc3ncc(-c4cnn(C)c4)nc3n2Cc2cnn(C)c2)c(F)c(OC)c1` [Compound 196], for which the values for the IC50 (on FGFR4 (h); in data set [1]; on KDR (h)) were roughly 0.891 nM, greater than 10000 nM and 3.98 nM, respectively.
The corresponding values for `COc1cc(OC)c(F)c(N(CC(C)(C)O)c2ccc3ncc(-c4cnn(CC(C)(C)O)c4)nc3n2)c1` (single isomer, unassigned) [Compound 208] are 18.6 nM, greater than 10000 nM and 77.6 nM.

Source of the values: patent publication US9309242B2, “Substituted pyrido[2,3-b]pyrazines as FGFR kinase inhibitors” (priority 2011, dated 2016).
